Like-named read-outs stand apart in the source and are kept apart here.
Tested on: M. tuberculosis H37Rv_DdnL49P_gfp
Assay type: cell-based, Mycobacterium tuberculosis
[1] = read-out: EC50 H37Rv_DdnL49P_gfp
[2] = in combination with pretomanid, unit inferred, read-out: average EC50 H37Rv_DdnL49P_gfp

O=C1[C@@H]2[C@H](C(=O)N1c1nc3ccc(Oc4ccccc4)cc3s1)[C@@H]1C=C[C@H]2C1 [Example 19, (1R,2S,6R,7S)-4-(6-phenoxy-1,3-benzothiazol-2-yl)-4-azatricyclo[5.2.1.02,6]dec-8-ene-3,5-dione]
EC50 [1]: 1000 to 5000 nM

O=C(Nc1nc2ccc(Cc3ccccc3)cc2s1)[C@@H]1C2C=CC(C2)[C@@H]1C(=O)O (stereo partly drawn) [Example 20, 3-[(6-benzyl-1,3-benzothiazol-2-yl)carbamoyl]bicyclo[2.2.1]hept-5-ene-2-carboxylic acid]
EC50 [1]: < 1000 nM

O=C(Nc1nc2ccc(Oc3ccc(F)cc3)cc2s1)[C@@H]1C2C=CC(C2)[C@@H]1C(=O)O (stereo partly drawn) [Example 21, 3-[[6-(4-fluorophenoxy)-1,3-benzothiazol-2-yl]carbamoyl]bicyclo[2.2.1]hept-5-ene-2-carboxylic acid]
EC50 [2]: 400 nM
EC50 [1]: < 1000 nM

O=C(Nc1nc2ccc(Oc3ccc(C(F)(F)F)cc3)cc2s1)[C@@H]1C2C=CC(C2)[C@@H]1C(=O)O (stereo partly drawn) [Example 22, 3-[[6-[4-(trifluoromethyl)phenoxy]-1,3-benzothiazol-2-yl]carbamoyl]bicyclo[2.2.1]hept-5-ene-2-carboxylic acid]
EC50 [1]: 1000 to 5000 nM

O=C1[C@@H]2[C@H](C(=O)N1c1nc3ccc(Oc4ccc(C(F)(F)F)cc4)cc3s1)[C@@H]1C=C[C@H]2C1 [Example 23, (1R,2S,6R,7S)-4-[6-[4-(trifluoromethyl)phenoxy]-1,3-benzothiazol-2-yl]-4-azatricyclo[5.2.1.02,6]dec-8-ene-3,5-dione]
EC50 [1]: 1000 to 5000 nM

O=C(Nc1nc2ccc(Oc3ccncc3)cc2s1)[C@@H]1C2C=CC(C2)[C@@H]1C(=O)O (stereo partly drawn) [Example 24, 3-[[6-(4-pyridyloxy)-1,3-benzothiazol-2-yl]carbamoyl]bicyclo[2.2.1]hept-5-ene-2-carboxylic acid]
EC50 [1]: 5000 to 10000 nM

O=C(Nc1nc2ccc(Oc3ncccc3C(F)(F)F)cc2s1)[C@@H]1C2C=CC(C2)[C@@H]1C(=O)O (stereo partly drawn) [Example 25, 3-[[6-[[3-(trifluoromethyl)-2-pyridyl]oxy]-1,3-benzothiazol-2-yl]carbamoyl]bicyclo[2.2.1]hept-5-ene-2-carboxylic acid]
EC50 [1]: 1000 to 5000 nM

O=C1[C@@H]2[C@H](C(=O)N1c1nc3ccc(Oc4ncccc4C(F)(F)F)cc3s1)[C@@H]1C=C[C@H]2C1 [Example 26, (1R,2S,6R,7S)-4-[6-[[3-(trifluoromethyl)-2-pyridyl]oxy]-1,3-benzothiazol-2-yl]-4-azatricyclo[5.2.1.02,6]dec-8-ene-3,5-dione]
EC50 [1]: 1000 to 5000 nM

O=C(Nc1nc2ccc(Oc3cc(C(F)(F)F)ccn3)cc2s1)[C@@H]1C2C=CC(C2)[C@@H]1C(=O)O (stereo partly drawn) [Example 27, 3-[[6-[[4-(trifluoromethyl)-2-pyridyl]oxy]-1,3-benzothiazol-2-yl]carbamoyl]bicyclo[2.2.1]hept-5-ene-2-carboxylic acid]
EC50 [2]: 230 nM
EC50 [1]: < 1000 nM

O=C1[C@@H]2[C@H](C(=O)N1c1nc3ccc(Oc4cc(C(F)(F)F)ccn4)cc3s1)[C@@H]1C=C[C@H]2C1 [Example 28, (1R,2S,6R,7S)-4-[6-[[4-(trifluoromethyl)-2-pyridyl]oxy]-1,3-benzothiazol-2-yl]-4-azatricyclo[5.2.1.02,6]dec-8-ene-3,5-dione]
EC50 [1]: < 1000 nM

Cc1ccnc(Oc2ccc3nc(NC(=O)[C@@H]4C5C=CC(C5)[C@@H]4C(=O)O)sc3c2)c1 (stereo partly drawn) [Example 29, 3-[[6-[(4-methyl-2-pyridyl)oxy]-1,3-benzothiazol-2-yl]carbamoyl]bicyclo[2.2.1]hept-5-ene-2-carboxylic acid]
EC50 [1]: < 1000 nM

Cc1ccnc(Oc2ccc3nc(N4C(=O)[C@@H]5C6C=CC(C6)[C@@H]5C4=O)sc3c2)c1 [Example 30]
EC50 [1]: < 1000 nM

N#Cc1ccnc(Oc2ccc3nc(N4C(=O)[C@@H]5[C@H](C4=O)[C@@H]4C=C[C@H]5C4)sc3c2)c1 [Example 31, 2-[[2-[(1R,2S,6R,7S)-3,5-dioxo-4-azatricyclo[5.2.1.02,6]dec-8-en-4-yl]-1,3-benzothiazol-6-yl]oxy]pyridine-4-carbonitrile]
EC50 [1]: 5000 to 10000 nM

O=C(Nc1nc2ccc(Oc3ccnc(C(F)(F)F)c3)cc2s1)[C@@H]1C2C=CC(C2)[C@@H]1C(=O)O (stereo partly drawn) [Example 32, 3-[[6-[[2-(trifluoromethyl)-4-pyridyl]oxy]-1,3-benzothiazol-2-yl]carbamoyl]bicyclo[2.2.1]hept-5-ene-2-carboxylic acid]
EC50 [2]: 320 nM
EC50 [1]: < 1000 nM

O=C1[C@@H]2[C@H](C(=O)N1c1nc3ccc(Oc4cccc(C(F)(F)F)n4)cc3s1)[C@@H]1C=C[C@H]2C1 [Example 34, (1R,2S,6R,7S)-4-[6-[[6-(trifluoromethyl)-2-pyridyl]oxy]-1,3-benzothiazol-2-yl]-4-azatricyclo[5.2.1.02,6]dec-8-ene-3,5-dione]
EC50 [1]: 1000 to 5000 nM

O=C(Nc1nc2ccc(Oc3ccc(C(F)(F)F)cn3)cc2s1)[C@@H]1C2C=CC(C2)[C@@H]1C(=O)O (stereo partly drawn) [Example 35, 3-[[6-[[5-(trifluoromethyl)-2-pyridyl]oxy]-1,3-benzothiazol-2-yl]carbamoyl]bicyclo[2.2.1]hept-5-ene-2-carboxylic acid]
EC50 [1]: 1000 to 5000 nM

O=C1[C@@H]2[C@H](C(=O)N1c1nc3ccc(Oc4ccc(C(F)(F)F)cn4)cc3s1)[C@@H]1C=C[C@H]2C1 [Example 36, (1R,2S,6R,7S)-4-[6-[[5-(trifluoromethyl)-2-pyridyl]oxy]-1,3-benzothiazol-2-yl]-4-azatricyclo[5.2.1.02,6]dec-8-ene-3,5-dione]
EC50 [2]: 490 nM
EC50 [1]: < 1000 nM

O=C(Nc1nc2ccc(Oc3ccc(Br)cn3)cc2s1)[C@@H]1C2C=CC(C2)[C@@H]1C(=O)O (stereo partly drawn) [Example 37, 3-[[6-[(5-bromo-2-pyridyl)oxy]-1,3-benzothiazol-2-yl]carbamoyl]bicyclo [2.2.1]hept-5-ene-2-carboxylic acid]
EC50 [1]: 1000 to 5000 nM

O=C(O)C1C2C=CC(C2)C1C(=O)Nc1nc2ccc([N+](=O)[O-])cc2s1 (stereo not drawn) [Example 38, 3-[(6-nitro-1,3-benzothiazol-2-yl)carbamoyl]bicyclo[2.2.1]hept-5-ene-2-carboxylic acid]
EC50 [1]: 5000 to 10000 nM

N#Cc1ccc2nc(NC(=O)[C@@H]3C4C=CC(C4)[C@@H]3C(=O)O)sc2c1 (stereo partly drawn) [Example 40, 3-[(6-cyano-1,3-benzothiazol-2-yl)carbamoyl]bicyclo[2.2.1]hept-5-ene-2-carboxylic acid]
EC50 [1]: 5000 to 10000 nM

COC(=O)c1ccc2nc(NC(=O)[C@@H]3C4C=CC(C4)[C@@H]3C(=O)O)sc2c1 (stereo partly drawn) [Example 41, 3-[(6-methoxycarbonyl-1,3-benzothiazol-2-yl)carbamoyl]bicyclo[2.2.1]hept-5-ene-2-carboxylic acid]
EC50 [1]: 1000 to 5000 nM

O=C(Nc1nc2ccc(F)cc2s1)[C@@H]1C2C=CC(C2)[C@@H]1C(=O)O (stereo partly drawn) [Example 42, 3-[(6-fluoro-1,3-benzothiazol-2-yl)carbamoyl]bicyclo[2.2.1]hept-5-ene-2-carboxylic acid]
EC50 [1]: 1000 to 5000 nM

O=C(Nc1nc2ccc(C(F)(F)F)cc2s1)[C@@H]1C2C=CC(C2)[C@@H]1C(=O)O (stereo partly drawn) [Example 43, 3-[[6-(trifluoromethyl)-1,3-benzothiazol-2-yl]carbamoyl]bicyclo[2.2.1]hept-5-ene-2-carboxylic acid]
EC50 [1]: 1000 to 5000 nM

O=C(Nc1nc2ccc(OC(F)(F)F)cc2s1)[C@@H]1C2C=CC(C2)[C@@H]1C(=O)O (stereo partly drawn) [Example 44, 3-[[6-(trifluoromethoxy)-1,3-benzothiazol-2-yl]carbamoyl]bicyclo[2.2.1]hept-5-ene-2-carboxylic acid]
EC50 [1]: 1000 to 5000 nM

O=C1[C@@H]2[C@H](C(=O)N1c1nc3ccc(OC(F)(F)F)cc3s1)[C@@H]1C=C[C@H]2C1 [Example 45, (1R,2S,6R,7S)-4-[6-(trifluoromethoxy)-1,3-benzothiazol-2-yl]-4-azatricyclo[5.2.1.02,6]dec-8-ene-3,5-dione]
EC50 [1]: 5000 to 10000 nM

O=C(Nc1nc2ccc(I)cc2s1)[C@@H]1C2C=CC(C2)[C@@H]1C(=O)O (stereo partly drawn) [Example 49, 3-[(6-iodo-1,3-benzothiazol-2-yl)carbamoyl]bicyclo[2.2.1]hept-5-ene-2-carboxylic acid]
EC50 [1]: 1000 to 5000 nM

O=C(Nc1nc2ccc(-c3ccccc3)cc2s1)[C@@H]1C2C=CC(C2)[C@@H]1C(=O)O (stereo partly drawn) [Example 51]
EC50 [1]: 1000 to 5000 nM

O=C(Nc1nc2ccc(C3CCCCC3)cc2s1)[C@@H]1C2C=CC(C2)[C@@H]1C(=O)O (stereo partly drawn) [Example 52, 3-[(6-cyclohexyl-1,3-benzothiazol-2-yl)carbamoyl]bicyclo[2.2.1]hept-5-ene-2-carboxylic acid]
EC50 [1]: 1000 to 5000 nM

Cc1ccc(-c2ccc3nc(NC(=O)[C@@H]4C5C=CC(C5)[C@@H]4C(=O)O)sc3c2)cc1 (stereo partly drawn) [Example 53, 3-[[6-(p-tolyl)-1,3-benzothiazol-2-yl]carbamoyl]bicyclo[2.2.1]hept-5-ene-2-carboxylic acid]
EC50 [1]: < 1000 nM

COc1ccc(-c2ccc3nc(NC(=O)[C@@H]4C5C=CC(C5)[C@@H]4C(=O)O)sc3c2)cc1 (stereo partly drawn) [Example 54, 3-[[6-(4-methoxyphenyl)-1,3-benzothiazol-2-yl]carbamoyl]bicyclo[2.2.1]hept-5-ene-2-carboxylic acid]
EC50 [2]: 690 nM
EC50 [1]: < 1000 nM

O=C(Nc1nc2ccc(-c3ccc(Cl)cc3)cc2s1)[C@@H]1C2C=CC(C2)[C@@H]1C(=O)O (stereo partly drawn) [Example 55, 3-[[6-(4-chlorophenyl)-1,3-benzothiazol-2-yl]carbamoyl]bicyclo[2.2.1]hept-5-ene-2-carboxylic acid]
EC50 [1]: < 1000 nM

O=C(Nc1nc2ccc(-c3ccc(Cl)c(Cl)c3)cc2s1)[C@@H]1C2C=CC(C2)[C@@H]1C(=O)O (stereo partly drawn) [Example 56, 3-[[6-(3,4-dichlorophenyl)-1,3-benzothiazol-2-yl]carbamoyl]bicycle [2.2.1]hept-5-ene-2-carboxylic acid]
EC50 [1]: 1000 to 5000 nM

O=C(Nc1nc2ccc(-c3ccccc3C(F)(F)F)cc2s1)[C@@H]1C2C=CC(C2)[C@@H]1C(=O)O (stereo partly drawn) [Example 57, 3-[6-[[2-(trifluoromethyl)phenyl]-1,3-benzothiazol-2-yl]carbamoyl]bicyclo[2.2.1]hept-5-ene-2-carboxylic acid]
EC50 [1]: 10000 to 20000 nM

O=C1C2C3C=CC(C3)C2C(=O)N1c1nc2ccc(-c3ccccc3C(F)(F)F)cc2s1 [Example 58, (1R,2S,6R,7S)-4-[6-[[2-(trifluoromethyl)phenyl]-1,3-benzothiazol-2-yl]-4-azatricyclo [5.2.1.02,6]dec-8-ene-3,5-dione]
EC50 [1]: 10000 to 20000 nM
